Source: the NIST ThermoML archive (doi:10.1021/acs.jced.5b00880)
Numbers after ± are expanded uncertainties.

Settings: Crystal; DTA

With `O=C(O)CCCCC(=O)O` [1,6-hexanedioic acid] the Normal melting temperature was 152.4 ± 1.1 °C.
